Biological target: T1, abc isoform of human TMEM16A channel expressed in CHO cells (Homo sapiens, UniProt Q5XXA6, DEL476-501)
T1 construct: expressed in transfected cells; host or cells: CHO cells, doxycycline-inducible expression under Blasticidin/Zeocin selection
T1 sequence (Q5XXA6 with tags, fused parts or gaps isoform Q5XXA6-5 DEL539-564): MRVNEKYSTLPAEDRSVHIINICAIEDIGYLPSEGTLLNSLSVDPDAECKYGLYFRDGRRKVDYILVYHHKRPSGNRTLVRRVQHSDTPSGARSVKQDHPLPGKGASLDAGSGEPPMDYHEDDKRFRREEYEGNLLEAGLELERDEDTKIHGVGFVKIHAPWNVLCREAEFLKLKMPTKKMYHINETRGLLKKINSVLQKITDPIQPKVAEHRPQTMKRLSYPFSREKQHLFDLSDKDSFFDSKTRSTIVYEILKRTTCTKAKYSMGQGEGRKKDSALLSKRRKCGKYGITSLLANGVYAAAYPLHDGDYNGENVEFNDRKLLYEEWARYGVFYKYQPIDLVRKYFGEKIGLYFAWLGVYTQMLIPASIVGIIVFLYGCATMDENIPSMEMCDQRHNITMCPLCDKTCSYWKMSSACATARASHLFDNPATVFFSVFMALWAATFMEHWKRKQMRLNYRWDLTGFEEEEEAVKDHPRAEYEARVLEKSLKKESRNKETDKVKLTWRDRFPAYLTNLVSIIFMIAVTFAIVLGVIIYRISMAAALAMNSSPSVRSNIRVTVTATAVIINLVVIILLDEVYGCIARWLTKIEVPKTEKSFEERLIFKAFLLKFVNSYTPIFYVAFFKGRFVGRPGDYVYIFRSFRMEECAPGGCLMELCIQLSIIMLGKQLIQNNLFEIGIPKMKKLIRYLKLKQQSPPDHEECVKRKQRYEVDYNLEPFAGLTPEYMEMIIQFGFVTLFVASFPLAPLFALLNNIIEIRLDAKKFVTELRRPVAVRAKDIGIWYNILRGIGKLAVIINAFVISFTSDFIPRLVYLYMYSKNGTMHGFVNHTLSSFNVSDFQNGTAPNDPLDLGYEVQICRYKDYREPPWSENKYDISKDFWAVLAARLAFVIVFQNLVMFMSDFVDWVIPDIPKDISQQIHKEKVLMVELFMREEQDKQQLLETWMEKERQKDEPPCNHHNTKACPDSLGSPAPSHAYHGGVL
Assay: Automated patch clamping (QPatch) assay to measure TMEM16A activity in whole-cell
Assay type: cell-based
Settings: for EC50: CHO cells expressing human TMEM16A (abc), whole-cell automated patch clamp, Hill fit, read-out: TMEM16A QPATCH assay EC50 V3 EC50; for Emax: CHO, maximum current at highest dose relative to reference potentiator at maximal concentration (upper limit) and vehicle (lower limit), read-out: TMEM16A QPATCH assay EC50 V3 Assay Window (% TMEM16A max activation)
Experimental: Automated Patch Clamping Assay to Measure TMEM16A Activity in Whole-Cell
Chinese hamster ovary cells (CHO) cells expressing abc isoform of human TMEM16A channel (Ref) were grown in vented cell-culture flasks (Corning) containing cell culture medium (1×F-12 Ham, 10% FBS, 1% Penicillin-streptomycin, 5 μg/mL Blasticidin S HCl, 400 μg/mL Zeocin), maintained at 37° C. in an incubator with 5% C02, 95% 02 and 100% humidity. The cells were passaged every 2-3 days at 80-90% confluence by aspirating the cell culture medium, washing twice with 10 mL D-PBS then incubating with 4 mL Trypsin-EDTA for no longer than 5 minutes. Trypsin was neutralized with the addition of 32 mL growth medium to the cell suspension, the cells were counted using a viable-cell counter (Vi-CELL; Beckmann-Coulter) and new flasks were seeded at a cell density of 0.01, 0.02, or 0.05×10^6 cells per cm2 for 3, 2, or 1 day(s) growth, respectively. Cell suspension was diluted in the new 175 cm2 flask with 50 mL of growth medium. Doxycycline was used to induce the expression of TMEM16A channel protein and was added directly to the culture flask 18-24 hours in advance of assay at a final concentration of 1 μg/mL. Induced cells were washed with D-PBS and detached from their culture flasks by adding 10 mL of Detachin and incubating for 10 minutes. Once detached, 5 mL of QPatch assay medium (1×CHO-S-SFM II (Sigma), 25 mM HEPES) was added and the resultant cell suspension counted using the Vi-CELL viable cell counter. The optimal cell density for this QPatch assay is 2-5×1 06 cells/mL; re-adjusted as necessary with QPatch assay medium.
The ion channel activity of TMEM16A (abc) expressed in CHO cells was assed using an automated patch clamp system (Qpatch, Sophion). These systems use planar patch-clamp technology to enable high-resistance, continuous whole-cell recordings from multiple cells in parallel, whilst maintaining each individual cell as an isolated experiment. First, each well was primed with intracellular and extracellular solutions described below. Cells were spun down, washed and then resuspended using extracellular solution. Intracellular solution: 130 mM N-methyl-D-glucamine, 10 mM EGTA, 20 mM CaCl2, 1 mM MgCl2, 10 mM HEPES 10, 10 mM BAPTA, 99 mM Sucrose, 2 mM Mg-ATP, pH 7.3, 320 mOsm Extracellular solution: 130 mM N-methyl-D-glucamine, 10 mM EGTA, 20 mM CaCl2, 1 mM MgCl2, 10 mM HEPES 10, 10 mM BAPTA, 99 mM Sucrose, 2 mM Mg-ATP, pH 7.3, 320 mOsm. Resuspended cells were then added to each well and suction was applied from the intracellular side in order to position a cell on the chip aperture, form a high resistance (GO) seal and achieve a whole-cell recording configuration. Following successful whole cell access, cell membranes were maintained at a voltage of −70 mV until the voltage protocol is applied. From this voltage, membranes were depolarized to +70 mV for 1500 ms, and then hyperpolarized to […] before being depolarized again from −90 to +70 mV in a continuous ramp waveform. At the end of the ramp, the membrane voltage is stepped back to −70 mV until the next waveform was applied. Compounds were dissolved at 10 mM in 100% DMSO and then diluted into extracellular solution (0.3% DMSO final) to the desired final concentration. The assay lower and upper limit were defined as follow, average amplitude (nA) of the last 3 sweeps in the vehicle addition of each cell was considered the basal current (lower limit); the average maximum current response in 3 cells for a reference potentiator at maximal concentration (upper limit). Current values for each compound concentration were then plotted against […]. EC50 curves are fitted to concentration-response data using curve-fitting functions (Hill fit) within the QPatch software. Curve fitting is constrained between the lowest concentration (vehicle-only addition) and the highest current value measured within the concentration range. […]

Row | Structure (SMILES) | EC50 [nM] | Emax [%]
1 | CCC(CC)NC(=O)c1cc(-c2cccc(-c3ncc(C(=O)N[C@@H](C)C4CCCCC4)o3)c2)[nH]n1 [Example 1.24, (S)-N-(1-Cyclohexylethyl)-2-(3-(3-(Pentan-3-Ylcarbamoyl)-1H-Pyrazol-5-yl)Phenyl)Oxazole-5-Carboxamide] | 180 | 83
2 | COC(=O)[C@@H](CSC)NC(=O)c1cnc(-c2cccc(-c3cc(C(=O)N[C@@H](C)C4CC4)n[nH]3)c2)o1 [Example 1.25, (S)-Methyl 2-(2-(3-(3-(((S)-1-Cyclopropylethyl)Carbamoyl)-1H-Pyrazol-5-yl)Phenyl)Oxazole-5-Carboxamido)-3-(Methylthio)Propanoate] | 260 | 83
3 | CCC(CC)NC(=O)c1cc(-c2cccc(-c3ncc(C(=O)N[C@@H](CC(C)C)C(=O)OC)o3)c2)[nH]n1 [Example 1.26, (S)-Methyl 4-Methyl-2-(2-(3-(3-(Pentan-3-Ylcarbamoyl)-1H-Pyrazol-5-yl)Phenyl)Oxazole-5-Carboxamido)Pentanoate] | 640 | 91
4 | CCC(CC)NC(=O)c1cc(-c2cccc(-c3ncc(C(=O)Nc4cccc(C#N)c4)o3)c2)[nH]n1 [Example 1.27, N-(3-Cyanophenyl)-2-(3-(3-(Pentan-3-Ylcarbamoyl)-1 H-Pyrazol-5-yl)Phenyl)Oxazole-5-Carboxamide] | 920 | 86
5 | CCOC(=O)[C@H](NC(=O)c1cnc(-c2cccc(-c3cc(C(=O)NC(CC)CC)n[nH]3)c2)o1)c1ccccc1 [Example 1.28, (R)-Ethyl 2-(2-(3-(3-(Pentan-3-Ylcarbamoyl)-1 H-Pyrazol-5-yl)Phenyl)Oxazole-5-Carboxamido)-2-Phenylacetate] | 610 | 84
6 | COC(=O)[C@@H](NC(=O)c1cnc(-c2cccc(-c3cc(C(=O)NC(C4CC4)C4CC4)[nH]n3)c2)o1)C(C)C [Example 1.29, (S)-Methyl 2-(2-(3-(5-((Dicyclopropylmethyl)Carbamoyl)-1 H-Pyrazol-3-yl)Phenyl)Oxazole-5-Carboxamido)-3-Methylbutanoate] | 10 | 113
7 | CCC(CC)NC(=O)c1cc(-c2cccc(-c3ncc(C(=O)Nc4ccon4)o3)c2)[nH]n1 [Example 1.30, N-(Isoxazol-3-Yl)-2-(3-(3-(Pentan-3-Ylcarbamoyl)-1 H-Pyrazol-5-yl)Phenyl)Oxazole-5-Carboxamide] | 870 | 62
8 | CCC(CC)NC(=O)c1cc(-c2cccc(-c3ncc(C(=O)NCc4ccc5c(c4)OCO5)o3)c2)[nH]n1 [Example 1.31, N-(Benzo[d][1,3]Dioxol-5-Ylmethyl)-2-(3-(3-(Pentan-3-Ylcarbamoyl)-1 H-Pyrazol-5-yl)Phenyl)Oxazole-5-Carboxamide] | 770 | 65
9 | CCC(CC)NC(=O)c1cc(-c2cccc(-c3ncc(C(=O)NCC(=O)OC(C)C)o3)c2)[nH]n1 [Example 1.32, Isopropyl 2-(2-(3-(3-(Pentan-3-Ylcarbamoyl)-1 H-Pyrazol-5-yl)Phenyl)Oxazole-5-Carboxamido)Acetate] | 880 | 77
10 | CCC(CC)NC(=O)c1cc(-c2cccc(-c3ncc(C(=O)Nc4cccc(Cl)c4)o3)c2)[nH]n1 [Example 1.33, N-(3-Chlorophenyl)-2-(3-(3-(Pentan-3-Ylcarbamoyl)-1H-Pyrazol-5-yl)Phenyl)Oxazole-5-Carboxamide] | 720 | 66
11 | CCC(CC)NC(=O)c1cc(-c2cccc(-c3ncc(C(=O)NCC4(C)CCCCC4)o3)c2)[nH]n1 [Example 1.34, N-((1-Methylcyclohexyl)Methyl)-2-(3-(3-(Pentan-3-Ylcarbamoyl)-1 H-Pyrazol-5-Yl)Phenyl)Oxazole-5-Carboxamide] | 570 | 72
12 | CCCC(CCC)NC(=O)c1cnc(-c2cccc(-c3cc(C(=O)NC(CC)CC)n[nH]3)c2)o1 [Example 1.35, N-(Heptan-4-Yl)-2-(3-(3-(Pentan-3-Ylcarbamoyl)-1H-Pyrazol-5-yl)Phenyl)Oxazole-5-Carboxamide] | 70 | 90
13 | CCOC(=O)[C@@H](NC(=O)c1cnc(-c2cccc(-c3cc(C(=O)NC(CC)CC)n[nH]3)c2)o1)c1ccccc1 [Example 1.36, (S)-Ethyl 2-(2-(3-(3-(Pentan-3-Ylcarbamoyl)-1 H-Pyrazol-5-Yl)Phenyl)Oxazole-5-Carboxamido)-2-Phenylacetate] | 1100 | 102
14 | CCC(CC)NC(=O)c1cc(-c2cccc(-c3ncc(C(=O)N[C@H](C(=O)OC(C)(C)C)c4ccccc4)o3)c2)[nH]n1 [Example 1.37, (S)-Tert-Butyl 2-(2-(3-(3-(Pentan-3-Ylcarbamoyl)-1H-Pyrazol-5-yl)Phenyl)Oxazole-5-Carboxamido)-2-Phenylacetate] | 200 | 81
15 | CCOC(=O)[C@H](Cc1ccccc1)NC(=O)c1cnc(-c2cccc(-c3cc(C(=O)NC(CC)CC)n[nH]3)c2)o1 [Example 1.38, (S)-Ethyl 2-(2-(3-(3-(Pentan-3-Ylcarbamoyl)-1 H-Pyrazol-5-yl)Phenyl)Oxazole-5-Carboxamido)-3-Phenylpropanoate] | 900 | 61
16 | CCC(CC)NC(=O)c1cc(-c2cccc(-c3ncc(C(=O)N[C@@H](C(=O)OC)c4ccccc4)o3)c2)[nH]n1 [Example 1.39, (R)-Methyl 2-(2-(3-(3-(Pentan-3-Ylcarbamoyl)-1H-Pyrazol-5-yl)Phenyl)Oxazole-5-Carboxamido)-2-Phenylacetate] | 880 | 66
17 | CCC(CC)NC(=O)c1cc(-c2cccc(-c3ncc(C(=O)N[C@H](C)C4CC4)o3)c2)[nH]n1 [Example 1.40, (R)-N-(1-Cyclopropylethyl)-2-(3-(5-(Pentan-3-Ylcarbamoyl)-1H-Pyrazol-3-yl)Phenyl)Oxazole-5-Carboxamide] | 160 | 93

Reference: patent US20220306617A1, “SUBSTITUTED 1,3-PHENYL HETEROARYL DERIVATIVES AND THEIR USE IN THE TREATMENT OF DISEASE” (NOVARTIS AG, priority 2019, published 2022)
